Laboratory results as given in patent publication US6093717A, “Imidazopyridine thrombin inhibitors” (Merck & Co., Inc., priority 1999, dated 2000).
pKi: −log10 of the molar value. Counter-ions that a name gives are not always drawn.

Biological target: human α-thrombin (Homo sapiens, UniProt P00734)
Test: In vitro assay for determining proteinase inhibition: human α-thrombin
Format: biochemical
Details: 25° C., 0.05 M TRIS buffer pH 7.4, 0.15 M NaCl, 0.1% PEG, class symbols, read-out: Inhibitory activity (Ki)
Description: In Vitro Assay For Determining Proteinase Inhibition
The assays were carried out at 25° C. in 0.05 M TRIS buffer pH 7.4, 0.15 M NaCl, 0.1% PEG. Trypsin assays also contained 1 mM CaCl2.
Concentrations of stock solutions of Z-GPR-afc were determined from measurements of absorbance at 380 nm of the 7-amino-4-trifluoromethyl coumarin produced upon complete hydrolysis of an aliquot of the stock solution by thrombin.
Times required to achieve equilibration between enzyme and inhibitor were determined in control experiments. Initial velocities of product formation in the absence (Vo) or presence of inhibitor (Vi) were measured. Assuming competitive inhibition, and that unity is negligible compared Km /[S], […] (where [S], [I], and e respectively represent the total concentrations, of substrate, inhibitor and enzyme), the equilibrium constant (Ki) for dissociation of the inhibitor from the enzyme can be obtained from the dependence of Vo /Vi on [I] shown in equation 1.

Structure (SMILES) | pKi
Cc1cc(CNC(=O)Cn2c(C)cnc(NCCc3ccccc3)c2=O)cn2ccnc12 [Example 3, dihydrochloride] | < 7.70
Cc1cc2nccn2cc1CNC(=O)Cn1c(C)cnc(NCCc2ccccc2)c1=O [Example 4, dihydrochloride] | < 7.70
Cc1cnc(NCCc2ccccc2)c(=O)n1CC(=O)NCc1ccn2ccnc2c1 [Example 5, 3-(2-Phenethyleneamino)-6-methyl-1-(6-methylenecarboxamidomethylene-imidazo[1,2-a]pyridinyl)-pyrazinone] | < 7.70
Cc1cc(S(=O)(=O)CC2CCC2)c(N)c(=O)n1CC(=O)NCc1ccc2nccn2c1C [Example 6, 3-Amino-4-cyclobutylmethylenesulfonyl-6-methyl-1-(4-methyl-5-methylenecarboxamidomethyleneimidazo[1,2-a]pyridinyl)-pyridinone hydrochloride] | > 7.70
Cc1cc2c(c(=O)n1CC(=O)NCc1ccc3nccn3c1C)NC(=O)[C@H](Cc1ccccc1)C2 [Example 9, [R]-7-(4-methyl-5-methylenecarboxamidomethyleneimidazo[1,2-a]pyridinyl)-3-benzyl-6-methyl-2-oxo-1,2,3,4-tetrahydro-1,7-naphthiridin-[7H]-8-one] | > 7.70
CC[C@H](C)CC1Cc2cc(C)n(CC(=O)NCc3ccc4nccn4c3C)c(=O)c2NC1=O (stereo partly drawn) [Example 10, 7-(4-methyl-5-methylenecarboxamidomethyleneimidazo[1,2-a]pyridinyl)-3-[RS]-(2-[S]-methylbutyl)-6-methyl-2-oxo-1,2,3,4-tetrahydro-1,7-naphthiridin-[7H]-8-one] | > 7.70

Next, values leading:

pKi | Structure (SMILES)
< 7.70 | Cc1cnc(NCCc2ccccc2)c(=O)n1CC(=O)NCc1ccc2nccn2c1 [Example 1, dihydrochloride]
> 7.70 | Cc1cnc(NCCc2ccccn2)c(=O)n1CC(=O)NCc1ccc2nccn2c1C [Example 7, 3-[2-(2-Pyridyl)ethyleneamino]-6-methyl-1-(4-methyl-5-methylenecarboxamidomethyleneimidazo[1,2-a]pyridinyl)-pyrazinone]
> 7.70 | Cc1ccc(NS(=O)(=O)Cc2ccccc2)c(=O)n1CC(=O)NCc1ccc2nccn2c1C [Example 8, hydrochloride]
